Measured values reported in patent US4315942A, “Intravenously administrable iron supplement” (New England Medical Center, Inc., priority 1979, dated 1982).

Tests used:
[1] = oral, relatively large daily doses; cited from earlier work
serum transferrin = test: Serum Fe, TIBC and saturation of serum transferrin after IV injection of the complex in a dog (efficacy to increase bioavailable iron); format: in vivo; details: for serum Fe / TIBC (Total Iron Binding Capacity): IV push; for serum Fe: before injection 235 (dog fed an iron rich diet); for TIBC (Total Iron Binding Capacity): before injection 360
Method: (§1) A 17 kg dog was premedicated and then anesthesized with IV sodium amytal. Through a femoral vein cutdown, the following studies were drawn before and after the addition of the iron complex solution: Hgb, Hct, serum Fe and TIBC (Total Iron Binding Capacity). In addition, serum Fe and TIBC were drawn after the addition of one half of the solution.
(§2) 40 ml of fresh stock solution (containing 6 mg of iron) were given by IV push through the femoral vein. The dog's ECG was monitored throughout the procedure. In approximately 10 minutes, the second set of studies were drawn and a second 40 ml were pushed. The final set of blood studies were drawn in approximately 10 minutes.

[2] = Hgb and Hct after IV injection of the complex in a dog; format: in vivo; details: after injection of 12 mg Fe, IV push, about 10 minutes
Method: as §1, §2

[3] = after injection of 6 mg Fe, about 10 minutes
[4] = after injection of 12 mg Fe, about 10 minutes after second 40 ml

Row | Compound | side effects [1] | saturation of serum transferrin (serum transferrin; addition of 6 mg of iron, IV, serum Fe equal to the TIBC) | serum iron relative to TIBC (serum transferrin; after a further 6 mg of iron, IV) | serum Fe (serum transferrin; [3]) [μg/100 ml] | TIBC (Total Iron Binding Capacity) (serum transferrin; [3]) [μg/100 ml] | serum Fe (serum transferrin; [4]) [μg/100 ml] | TIBC (Total Iron Binding Capacity) (serum transferrin; [4]) [μg/100 ml] | Hgb ([2]; before injection 6.7) [g%] | Hct ([2]; before injection 20.5) [%]
1 | ferrous sulfate | nausea, vomiting, constipation | – | – | – | – | – | – | – | –
2 | CC(=O)N[O-].CC(=O)N[O-].CC(=O)N[O-].[Fe+3] [ferric acetohydroxamic acid complex, iron (III) complex of acetohydroxamic acid] | – | saturated the serum transferrin | greater than the TIBC | 360 | 360 | 470 | 330 | 6.5 | 20.0
